Where “and” joins values, the source holds several entries; their conditions need not be identical. Equal values may be shown once.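 Where inhibition never reached the appropriate level, the endpoint shown equals the highest concentration tested. Otherwise, values were interpolated linearly from a five-concentration, 48-hour dose response in 96-well plates. The concentration for 50% growth inhibition is given as GI50. TGI is the concentration that stops growth completely.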
How the values were obtained:
Experiment in all cases: NCI tumour cell line growth inhibition, 48 h
CCRF-CEM leukemia = tested on: CCRF-CEM leukemia
HCT-15 colon = tested on: HCT-15 colon
HL-60(TB) leukemia = tested on: HL-60(TB) leukemia
IGROV1 ovarian = tested on: IGROV1 ovarian
K-562 leukemia = tested on: K-562 leukemia
SR leukemia = tested on: SR leukemia
SW-620 colon = tested on: SW-620 colon
TK-10 renal = tested on: TK-10 renal

| SMILES | GI50 (CCRF-CEM leukemia) | TGI (CCRF-CEM leukemia) | GI50 (HCT-15 colon) | TGI (HCT-15 colon) | GI50 (HL-60(TB) leukemia) | TGI (HL-60(TB) leukemia) | GI50 (IGROV1 ovarian) | TGI (IGROV1 ovarian) | GI50 (K-562 leukemia) | TGI (K-562 leukemia) | TGI (SR leukemia) | GI50 (SW-620 colon) | TGI (SW-620 colon) | GI50 (TK-10 renal) | TGI (TK-10 renal) | GI50 (SR leukemia) |
| --- | --- | --- | --- | --- | --- | --- | --- | --- | --- | --- | --- | --- | --- | --- | --- | --- |
| O=C(Nc1ccc(-c2ccnc(Nc3ccc(N4CCOCC4)cc3)n2)cc1)C1CCCN1 (centres undefined) | 2.36 µM | 39.9 µM | 0.639 µM | 18.9 µM | 4.5 µM | 25.5 µM | 5.16 µM | 25.8 µM | 2 µM | > 53.3 µM | > 25.6 µM | 6.14 µM | 25.1 µM | 9.35 µM | 33.6 µM |  |
| COc1ccc(/C=C/c2cnc3ccccc3n2)cc1OC |  | > 100 µM |  | > 100 µM |  | > 100 µM |  | > 100 µM |  | > 100 µM | > 100 µM |  | > 100 µM |  | > 100 µM |  |
| Cc1cc(Cl)ccc1NC(=O)NC(C)(C)COC(=O)Nc1cccc(Cl)c1 | 3.88 µM | 37.3 µM | 2.48 µM | 13.1 µM | 9.71 µM | 71.9 µM | 11.1 µM | > 100 µM | 5.09 µM | > 100 µM | > 100 µM | 7.45 µM | > 100 µM | 8.86 µM | > 100 µM | 8.31 µM |
| CC(C)N(Cc1ccccc1)S(=O)(=O)c1n[nH]c(C(C)(C)C)n1 |  | > 100 µM |  | > 100 µM |  | > 100 µM |  | > 100 µM |  | > 100 µM | > 100 µM |  | > 100 µM |  | > 100 µM |  |
| Cc1cc(S(=O)(=O)Nc2nc3cc(-c4ccsc4)sc3c(=O)n2N)c(S)cc1Cl | 64.7 µM | > 100 µM | 59.2 µM | > 100 µM | > 100 µM | > 100 µM | > 100 µM | > 100 µM | 52 µM | > 100 µM | > 100 µM | > 100 µM | > 100 µM | > 100 µM | > 100 µM | > 100 µM |
| NC(=S)N/N=C\c1nccc2c(C(F)(F)C(F)(F)C(F)(F)F)cccc12 | 0.0427 µM | > 100 µM | 0.0488 µM | > 100 µM | 0.0649 µM | 0.665 µM | 0.223 µM | 1.93 µM | 0.346 µM | > 100 µM | > 32.4 µM | 0.0538 µM | 24.3 µM | 0.078 µM | 2.3 µM | 0.0433 µM |
| CC(=O)Nc1cc2cc(NS(=O)(=O)c3cc(C(F)(F)F)cc(C(F)(F)F)c3)ccc2oc1=O |  | > 100 µM |  | > 100 µM |  | > 100 µM |  | > 100 µM |  | > 100 µM | > 100 µM |  | > 100 µM |  | > 100 µM |  |
| CC(C)=CCC/C(C)=C/[C@H]1OC(=O)CC12C[C@H](O)C=CC2=O (some centres undefined) | 0.171 µM | 0.521 µM | 0.509 µM | > 100 µM | 0.323 µM | 1.11 µM | 1.65 µM |  | 0.363 µM | > 100 µM | > 100 µM | 0.446 µM | > 100 µM | 1.31 µM | 2.93 µM | 0.383 µM |
| O=[N+]([O-])c1ccc(NC(=S)N/N=C(\c2ccccc2)c2ccccn2)cc1 | 0.0073 µM | 2.31 µM and 10.2 µM |  | 2.71 µM | 1.59 µM | 4.32 µM and > 20.4 µM |  | 3.18 µM and 3.43 µM | 0.00498 µM | 2.41 µM and 3.82 µM | 2.98 µM and > 27.4 µM | 0.0303 µM | 1.93 µM and 2.35 µM |  | 2.51 µM | 0.0286 µM |
| CN(C)c1ccc(N=C(C#N)c2nc(N)nc(N3CCN(c4ccccc4)CC3)n2)cc1 | > 50 µM | > 50 µM | > 28.5 µM | > 50 µM | > 50 µM | > 50 µM | 14.8 µM | > 50 µM | > 50 µM | > 50 µM | > 50 µM | 22.1 µM | > 50 µM | > 30.6 µM | > 50 µM | > 50 µM |
| CC(=O)O[C@H](C[C@H](C(C)C)N(C)C(=O)[C@@H](NC(=O)[C@H]1CCCCN1C)C(C)(C)C)c1nc(C(=O)N[C@@H](Cc2ccccc2)C[C@H](C)C(=O)O)cs1 | < 0.0025 µM | > 25 µM | < 0.0025 µM | > 25 µM | < 0.0025 µM | < 0.0025 µM | 0.00294 µM | > 25 µM | < 0.0025 µM | > 25 µM | > 25 µM | < 0.0025 µM | > 25 µM | 0.00962 µM | > 25 µM | < 0.0025 µM |
| CC[C@H](C)[C@H](NC(=O)c1nccn1C)C(=O)N(C)[C@H](C[C@@H](OC(C)=O)c1nc(C(=O)N[C@@H](Cc2ccccc2)C[C@H](C)C(=O)OC)cs1)C(C)C | 1.04 µM | > 33.3 µM | 0.999 µM | > 33.3 µM | 0.642 µM | 1.78 µM | 0.704 µM | > 33.3 µM | 0.796 µM | > 33.3 µM | > 33.3 µM | 1.33 µM | > 33.3 µM | 7.49 µM | > 33.3 µM | 0.179 µM |
| O=c1oc2cc(OS(=O)(=O)c3ccccc3)ccc2c2c1CCCCC2 | 4.56 µM | > 100 µM | 3.92 µM | > 100 µM | 2.05 µM | 8.54 µM | > 100 µM | > 100 µM | 4.06 µM | > 100 µM | > 100 µM | 4.89 µM | > 100 µM | > 100 µM | > 100 µM | 3.01 µM |

Source: PubChem BioAssay (NCI)
